Consider 3 compounds from ChEMBL document CHEMBL4145686, “Discovery of a Potent and Selective Steroidal Glucocorticoid Receptor Antagonist (ORIC-101)” (J Med Chem, 2018).

Data set [1] concerns the target T1, glucocorticoid receptor (GR) (Homo sapiens, UniProt P04150).
T1 sequence (P04150 whole entry): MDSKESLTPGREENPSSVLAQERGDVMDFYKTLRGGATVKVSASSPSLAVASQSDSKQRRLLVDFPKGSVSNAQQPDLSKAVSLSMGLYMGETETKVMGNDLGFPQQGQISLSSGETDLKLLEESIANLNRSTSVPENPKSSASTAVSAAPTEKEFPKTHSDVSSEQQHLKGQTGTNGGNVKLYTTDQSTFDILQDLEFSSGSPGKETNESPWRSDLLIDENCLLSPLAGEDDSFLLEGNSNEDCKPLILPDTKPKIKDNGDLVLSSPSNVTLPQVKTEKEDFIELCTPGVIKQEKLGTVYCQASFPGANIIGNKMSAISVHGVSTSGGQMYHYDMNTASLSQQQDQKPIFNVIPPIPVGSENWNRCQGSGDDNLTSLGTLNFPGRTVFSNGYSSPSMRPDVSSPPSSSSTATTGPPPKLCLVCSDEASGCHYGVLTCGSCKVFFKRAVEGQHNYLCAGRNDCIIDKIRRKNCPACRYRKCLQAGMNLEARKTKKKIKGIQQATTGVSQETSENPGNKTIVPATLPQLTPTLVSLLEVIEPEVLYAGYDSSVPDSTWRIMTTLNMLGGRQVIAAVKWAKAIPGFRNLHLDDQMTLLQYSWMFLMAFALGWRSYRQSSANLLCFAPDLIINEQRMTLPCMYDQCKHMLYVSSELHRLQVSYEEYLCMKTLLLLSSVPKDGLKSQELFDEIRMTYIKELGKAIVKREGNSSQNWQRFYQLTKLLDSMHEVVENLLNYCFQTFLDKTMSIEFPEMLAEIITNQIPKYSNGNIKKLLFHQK
The data set is described as follows: Agonist activity at human GR expressed in CHO-K1 cells incubated for 20 hrs by luciferase reporter gene assay relative to dexamethasone. It is filed as cell-based. Conditions: CHO-K1 cells expressing human GR. On the technique in general: Reporter assays use an easily measured gene product as a stand-in for the process of interest.

Data set [2] in a line: Cmax in rat at 5 mg/kg, po. The class given is ADME, organism-based. Set-up: dose 5 mg/kg, route oral. Conditions: in vivo.
Data set [3] addresses T2, Glucocorticoid receptor (Sus scrofa, UniProt Q9N1U3).
T2 sequence (Q9N1U3 whole entry): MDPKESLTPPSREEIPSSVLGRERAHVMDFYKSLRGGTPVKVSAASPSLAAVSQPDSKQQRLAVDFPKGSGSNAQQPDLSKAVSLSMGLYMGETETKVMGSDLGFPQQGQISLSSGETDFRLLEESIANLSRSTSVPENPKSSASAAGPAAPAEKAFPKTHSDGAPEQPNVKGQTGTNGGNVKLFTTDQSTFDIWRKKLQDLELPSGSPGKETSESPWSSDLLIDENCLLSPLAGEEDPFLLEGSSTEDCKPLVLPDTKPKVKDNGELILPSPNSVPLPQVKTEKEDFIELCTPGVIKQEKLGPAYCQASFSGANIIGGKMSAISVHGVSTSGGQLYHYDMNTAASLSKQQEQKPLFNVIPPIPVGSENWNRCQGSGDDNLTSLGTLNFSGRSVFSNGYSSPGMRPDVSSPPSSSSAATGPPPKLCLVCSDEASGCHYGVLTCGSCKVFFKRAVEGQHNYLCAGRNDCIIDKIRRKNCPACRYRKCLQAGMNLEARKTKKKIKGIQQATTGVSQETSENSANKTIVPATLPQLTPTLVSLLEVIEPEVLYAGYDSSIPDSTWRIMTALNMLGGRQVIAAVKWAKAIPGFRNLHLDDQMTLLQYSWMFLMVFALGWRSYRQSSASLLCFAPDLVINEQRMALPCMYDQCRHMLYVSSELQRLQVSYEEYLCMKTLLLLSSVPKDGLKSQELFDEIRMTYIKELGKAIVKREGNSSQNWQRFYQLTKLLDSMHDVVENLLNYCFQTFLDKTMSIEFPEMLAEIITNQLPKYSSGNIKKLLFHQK
The data set is described as follows: Antagonist activity at GR in mini pig PBMC assessed as reduction in dexamethasone-induced FKBP5 gene expression incubated for 24 hrs by RT-qPCR method. The class given is cell-based. (In general: In qPCR the cycle at which signal appears reflects the starting amount.)

A further data set addresses Cytochrome P450 2C9 (Homo sapiens, UniProt P11712). The data set is described as follows: Inhibition of CYP2C9 (unknown origin) using […] as substrate. The class given is ADME.
Data set [4] can be described thus: Antagonist activity at GR in monkey PBMC assessed as reduction in dexamethasone-induced FKBP5 gene expression incubated for 6 hrs by RT-qPCR method. It is filed as cell-based. Conditions: Macaca mulatta.
A short description of data set [5]: Half life in rat at 0.5 mg/kg, iv. It is filed as ADME, organism-based. The settings on record: in vivo.
A short description of data set [6]: Clearance in rat at 0.5 mg/kg, iv. The class given is ADME, organism-based. Conditions: in vivo.
Data set [7] is described as follows: AUC in rat at 5 mg/kg, po. The class given is ADME, organism-based. The settings on record: in vivo.
A further data set has as its target T3, Cytochrome P450 2C8 (Homo sapiens, UniProt P10632).
T3 sequence (P10632 whole entry): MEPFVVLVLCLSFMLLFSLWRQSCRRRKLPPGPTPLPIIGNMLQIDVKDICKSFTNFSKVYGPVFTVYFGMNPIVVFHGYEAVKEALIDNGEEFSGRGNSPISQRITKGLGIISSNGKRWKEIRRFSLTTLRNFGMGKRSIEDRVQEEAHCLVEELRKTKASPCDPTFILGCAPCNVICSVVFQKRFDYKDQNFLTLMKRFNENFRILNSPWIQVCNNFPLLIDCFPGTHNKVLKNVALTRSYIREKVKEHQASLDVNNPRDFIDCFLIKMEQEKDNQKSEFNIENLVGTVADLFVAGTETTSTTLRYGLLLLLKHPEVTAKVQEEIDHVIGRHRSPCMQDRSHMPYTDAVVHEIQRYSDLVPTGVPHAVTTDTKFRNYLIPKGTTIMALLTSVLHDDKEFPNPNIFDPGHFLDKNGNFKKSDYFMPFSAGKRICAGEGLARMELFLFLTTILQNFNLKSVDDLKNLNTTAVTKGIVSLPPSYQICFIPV
Nature of the data set: Inhibition of CYP2C8 (unknown origin) using […] as substrate. The class given is ADME.

In data set [8] the target is T2, Glucocorticoid receptor. Nature of the data set: Antagonist activity at GR in mini pig PBMC assessed as reduction in dexamethasone-induced GILZ gene expression incubated for 24 hrs by RT-qPCR method. The class given is cell-based.
For data set [9], the target named is T4, Glucocorticoid receptor (Canis lupus familiaris, UniProt A0A8C0QLS2).
T4 sequence (A0A8C0QLS2 whole entry): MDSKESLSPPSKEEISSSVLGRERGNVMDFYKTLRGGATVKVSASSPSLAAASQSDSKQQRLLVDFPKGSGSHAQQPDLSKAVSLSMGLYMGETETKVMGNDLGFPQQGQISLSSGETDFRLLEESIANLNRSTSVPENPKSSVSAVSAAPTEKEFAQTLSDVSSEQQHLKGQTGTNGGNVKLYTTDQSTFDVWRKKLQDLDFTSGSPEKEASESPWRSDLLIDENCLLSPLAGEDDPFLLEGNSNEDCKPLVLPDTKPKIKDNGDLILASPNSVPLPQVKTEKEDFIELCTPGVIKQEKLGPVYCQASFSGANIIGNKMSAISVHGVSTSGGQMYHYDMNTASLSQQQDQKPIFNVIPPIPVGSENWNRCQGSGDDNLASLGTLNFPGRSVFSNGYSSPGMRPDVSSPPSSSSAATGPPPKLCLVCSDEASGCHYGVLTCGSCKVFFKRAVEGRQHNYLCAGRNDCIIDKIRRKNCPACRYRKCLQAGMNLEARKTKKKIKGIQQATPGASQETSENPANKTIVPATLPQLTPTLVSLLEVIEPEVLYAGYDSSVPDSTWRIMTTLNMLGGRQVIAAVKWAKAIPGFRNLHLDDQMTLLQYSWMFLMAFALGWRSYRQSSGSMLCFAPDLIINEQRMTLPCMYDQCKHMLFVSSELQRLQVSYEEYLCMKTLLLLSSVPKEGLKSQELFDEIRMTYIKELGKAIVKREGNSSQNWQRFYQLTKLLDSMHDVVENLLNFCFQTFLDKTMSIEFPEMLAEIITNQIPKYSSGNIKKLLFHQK
The data set is described as follows: Antagonist activity at GR in dog PBMC assessed as reduction in dexamethasone-induced GILZ gene expression incubated for 6 hrs by RT-qPCR method. It is filed as cell-based.

A short description of data set [10]: Oral bioavailability in rat at 5 mg/kg. The class given is ADME, organism-based. The settings on record: in vivo.
Data set [11] has as its target T4, Glucocorticoid receptor. Nature of the data set: Antagonist activity at GR in dog PBMC assessed as reduction in dexamethasone-induced FKBP5 gene expression incubated for 6 hrs by RT-qPCR method. The class given is cell-based.
Data set [12] in a line: Antagonist activity at GR in monkey PBMC assessed as reduction in dexamethasone-induced GILZ gene expression incubated for 6 hrs by RT-qPCR method. Conditions: Macaca mulatta. It is filed as cell-based.
A short description of data set [13]: Volume of distribution at steady state in rat at 0.5 mg/kg, iv. The class given is ADME, organism-based. The settings on record: in vivo, read-out: Vdss.
Data set [14] concerns the target T5, Androgen receptor (Homo sapiens, UniProt P10275).
T5 sequence (P10275 whole entry): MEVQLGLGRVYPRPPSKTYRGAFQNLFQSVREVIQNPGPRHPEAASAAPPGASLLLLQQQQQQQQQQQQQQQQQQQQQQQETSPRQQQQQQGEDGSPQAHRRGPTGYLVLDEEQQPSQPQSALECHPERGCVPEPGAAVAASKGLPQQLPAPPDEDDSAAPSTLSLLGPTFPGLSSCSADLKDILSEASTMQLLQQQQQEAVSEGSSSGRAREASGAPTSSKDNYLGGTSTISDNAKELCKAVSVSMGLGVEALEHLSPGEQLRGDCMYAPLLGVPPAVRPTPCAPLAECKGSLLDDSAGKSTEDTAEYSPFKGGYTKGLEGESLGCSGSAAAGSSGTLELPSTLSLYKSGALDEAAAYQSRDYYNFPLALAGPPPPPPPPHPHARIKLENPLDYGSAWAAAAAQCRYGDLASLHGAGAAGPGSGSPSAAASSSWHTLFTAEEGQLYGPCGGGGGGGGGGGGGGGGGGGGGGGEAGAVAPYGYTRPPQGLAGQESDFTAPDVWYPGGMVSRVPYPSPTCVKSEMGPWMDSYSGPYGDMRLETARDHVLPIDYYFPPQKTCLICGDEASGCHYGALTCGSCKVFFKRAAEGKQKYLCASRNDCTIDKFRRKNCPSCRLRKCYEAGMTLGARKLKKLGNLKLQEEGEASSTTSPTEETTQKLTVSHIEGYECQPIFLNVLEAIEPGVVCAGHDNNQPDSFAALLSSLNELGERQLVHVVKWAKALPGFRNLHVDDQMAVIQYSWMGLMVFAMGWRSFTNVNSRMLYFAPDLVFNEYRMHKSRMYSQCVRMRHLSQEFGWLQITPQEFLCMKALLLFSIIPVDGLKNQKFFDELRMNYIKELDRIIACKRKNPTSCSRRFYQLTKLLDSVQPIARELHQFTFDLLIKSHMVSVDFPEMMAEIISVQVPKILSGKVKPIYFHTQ
Nature of the data set: Agonist activity at AR in human LNAR cells assessed as increase in PSA gene expression at 0.1 nM incubated for 24 hrs by RT-qPCR method. It is filed as cell-based. The settings on record: 0.0001 µM.

The target of data set [15] is T5, Androgen receptor. Nature of the data set: Agonist activity at AR in human LNAR cells assessed as increase in TMPRSS2 gene expression at 0.1 nM incubated for 24 hrs in presence of 1 uM enzalutamide by RT-qPCR method. The class given is cell-based. Conditions: 0.0001 µM.
The target of data set [16] is T5, Androgen receptor. The data set is described as follows: Agonist activity at AR in human LNAR cells assessed as increase in PSA gene expression at 0.1 nM incubated for 24 hrs in presence of 1 uM enzalutamide by RT-qPCR method. The class given is cell-based. The settings on record: 0.0001 µM.
Data set [17] deals with T5, Androgen receptor. Nature of the data set: Agonist activity at AR in human LNAR cells assessed as increase in TMPRSS2 gene expression at 0.1 nM incubated for 24 hrs by RT-qPCR method. It is filed as cell-based. The settings on record: 0.0001 µM.
The test system of a further data set is OVCAR-5. The settings on record: Homo sapiens, 100 mg/kg.

pIC50: −log10 of the molar value. Activity calls are given as the source filed them.

Sequence of Cytochrome P450 2C9 (P11712 whole entry): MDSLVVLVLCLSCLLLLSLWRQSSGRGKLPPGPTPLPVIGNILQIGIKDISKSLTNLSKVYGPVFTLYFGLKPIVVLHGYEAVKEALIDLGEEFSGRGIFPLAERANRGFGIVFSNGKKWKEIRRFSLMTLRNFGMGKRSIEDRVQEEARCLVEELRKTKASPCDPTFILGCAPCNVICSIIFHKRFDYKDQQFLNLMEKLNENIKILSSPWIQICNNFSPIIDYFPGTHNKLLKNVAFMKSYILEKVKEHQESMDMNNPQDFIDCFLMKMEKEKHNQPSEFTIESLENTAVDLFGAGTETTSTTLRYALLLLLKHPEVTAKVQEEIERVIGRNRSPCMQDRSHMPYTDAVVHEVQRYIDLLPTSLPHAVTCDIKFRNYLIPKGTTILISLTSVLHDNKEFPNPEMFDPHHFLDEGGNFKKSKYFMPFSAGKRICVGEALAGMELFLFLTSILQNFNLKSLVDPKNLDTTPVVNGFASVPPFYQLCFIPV

Consider `CC#C[C@]1(O)CC[C@H]2[C@@H]3CCC4=CC(=O)CCC4=C3[C@@H](c3ccc(N(C)C)cc3)C[C@@]21C` [MIFEPRISTONE], for which the Emax (in general, the maximal effect, on the per cent scale that the assay sets) at 20 h in data set [1] came out at 3.1%. Besides, the highest level in [2] (Cmax) was 24 ng/mL. Moreover, the pIC50 (commonly −log10 of the IC50, conventionally taken in molar units) on Glucocorticoid receptor [3] is 7.71; against Cytochrome P450 2C9, 5.31; in data set [4], 7.66; on Cytochrome P450 2C8 it was 5.82; on Glucocorticoid receptor [8] it was 7.59 to 7.96; on Glucocorticoid receptor [9] it was 7.49. Further, the negative-log IC50 (pIC50) on Glucocorticoid receptor [11] was 7.69; in data set [12] it was 7.86. In addition, the half-life (in general, the time needed for the level to fall by half in the phase considered) in data set [5] was 1.6 h. Further, the clearance (usually a measure of how efficiently the substance is removed, as volume per time) in data set [6] was 61.7 mL/min/kg. For the same compound, the AUC (usually the area under the concentration-time curve, a measure of exposure) in data set [7] is 85 ng·h/mL. In addition, the bioavailability – broadly, the share of a dose that reaches the circulation, judged against a reference dose that is usually intravenous – in data set [10] stood at 6.4%. For the same compound, in data set [13], the Vd was 4.1 L/kg.
For `C[C@]1(O)CC[C@H]2[C@@H]3CCC4=CC(=O)CCC4=C3C=C[C@@]21C` [METRIBOLONE], the Activity entry on Androgen receptor [14] was “Active”; at Androgen receptor [15], “Not Active”; on Androgen receptor [16], “Not Active”; on Androgen receptor [17] it was “Active”.
As to `Nc1ccn([C@@H]2O[C@H](CO)[C@@H](O)C2(F)F)c(=O)n1`, in the data set on OVCAR-5, the TGI result is “Active”.
